# Measurements published in PMC10135569, “Does Enhanced Structural Maturity of hiPSC-Cardiomyocytes Better for the Detection of Drug-Induced Cardiotoxicity?” (Biomolecules, 2023).
# Experiments:
# [1] = test system: hiPSC-CMs (iCell2 Cardiomyocytes) 2D monolayers; assay: Membrane potential (action potential) recordings with FluoVolt voltage-sensitive dye on the CellOPTIQ platform; type: cell-based, human; conditions: Homo sapiens, Cardiomyocyte, 0.5 h, 30 min, delta over DMSO 0.1%
# Outline: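 iCell2 hiPSC-CM monolayers (50,000 cells/well on fibronectin or Matrix Plus, days 5–6) were loaded with FluoVolt (1:1000, 20 min, 37 °C) and imaged at 37 °C with 470 nm excitation and 510–560 nm emission sampled at 10 kHz. Spontaneous action potentials were recorded for 10 s at baseline and 30 min after drug, with one of four concentrations per well (n = 8).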
# [2] = test system: hiPSC-CMs (iCell2 Cardiomyocytes) 2D monolayers; assay: Contractility measurements using video imaging (ContractilityTool / MUSCLEMOTION); type: cell-based, human; conditions: Homo sapiens, Cardiomyocyte, 0.5 h, 30 min, delta over DMSO 0.1%
# Outline: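 Monolayers on fibronectin or Matrix Plus coating, tested on days 5–6 in serum-free medium. Four concentrations, one per well, n = 8, with vehicle control.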
# [3] = listed in Supplementary Table S1; no reference given; cited from earlier work
# [4] = FM monolayer, read-out: APD30 (%DD)
# [5] = FM monolayer, read-out: APD90 (%DD)
# [6] = FM monolayer, read-out: CL (%DD)
# [7] = FM monolayer, read-out: Trise (%DD)
# [8] = MM monolayer, read-out: APD30 (%DD)
# [9] = MM monolayer, read-out: APD90 (%DD)
# [10] = MM monolayer, read-out: CL (%DD)
# [11] = MM monolayer, read-out: Trise (%DD)
# [12] = FM monolayer, read-out: CtAmp (%DD)
# [13] = FM monolayer, read-out: CtD50 (%DD)
# [14] = MM monolayer, read-out: CtAmp (%DD)
# [15] = MM monolayer, read-out: CtD50 (%DD)
smiles,measurement,setting,value
Cc1[nH]c(=O)c(C#N)cc1-c1ccncc1 [Milrinone],activity at 0.3 µM,[1]; [4],96 ± 1.8%
same,activity at 0.3 µM,[1]; [5],96 ± 1.2%
same,activity at 0.3 µM,[1]; [6],96 ± 1.6%
same,activity at 0.3 µM,[1]; [7],80 ± 13.1%
same,activity at 1 µM,[1]; [4],100 ± 1%
same,activity at 1 µM,[1]; [5],96 ± 0.7%
same,activity at 1 µM,[1]; [6],99 ± 0.8%
same,activity at 1 µM,[1]; [7],74 ± 13.3%
same,activity at 3 µM,[1]; [4],96 ± 1.9%
same,activity at 3 µM,[1]; [5],94 ± 0.4%
same,activity at 3 µM,[1]; [6],100 ± 0.7%
same,activity at 3 µM,[1]; [7],68 ± 7.3%
same,activity at 10 µM,[1]; [4],92 ± 2%
same,activity at 10 µM,[1]; [5],95 ± 1.1%
same,activity at 10 µM,[1]; [6],103 ± 0.6%
same,activity at 10 µM,[1]; [7],106 ± 26.8%
same,activity at 0.3 µM,[1]; [8],96 ± 1.6%
same,activity at 0.3 µM,[1]; [9],97 ± 1.1%
same,activity at 0.3 µM,[1]; [10],97 ± 0.2%
same,activity at 0.3 µM,[1]; [11],112 ± 18.8%
same,activity at 1 µM,[1]; [8],97 ± 0.7%
same,activity at 1 µM,[1]; [9],99 ± 0.5%
same,activity at 1 µM,[1]; [10],100 ± 0.6%
same,activity at 1 µM,[1]; [11],125 ± 11.4%
same,activity at 3 µM,[1]; [8],97 ± 1.4%
same,activity at 3 µM,[1]; [9],102 ± 1.4%
same,activity at 3 µM,[1]; [10],101 ± 0.5%
same,activity at 3 µM,[1]; [11],132 ± 27.3%
same,activity at 10 µM,[1]; [8],95 ± 1%
same,activity at 10 µM,[1]; [9],100 ± 0.9%
same,activity at 10 µM,[1]; [10],103 ± 0.2%
same,activity at 10 µM,[1]; [11],102 ± 7%
same,activity at 0.3 µM,[2]; [12],103 ± 10.9%
same,activity at 0.3 µM,[2]; [13],101 ± 1.7%
same,activity at 1 µM,[2]; [12],116 ± 13.2%
same,activity at 1 µM,[2]; [13],104 ± 2.4%
same,activity at 3 µM,[2]; [12],100 ± 8.4%
same,activity at 3 µM,[2]; [13],103 ± 1.7%
same,activity at 10 µM,[2]; [12],81 ± 5.7%
same,activity at 10 µM,[2]; [13],101 ± 1.7%
same,activity at 0.3 µM,[2]; [14],131 ± 17.5%
same,activity at 0.3 µM,[2]; [15],100 ± 1%
same,activity at 1 µM,[2]; [14],115 ± 6.3%
same,activity at 1 µM,[2]; [15],105 ± 1.8%
same,activity at 3 µM,[2]; [14],76 ± 9.1%
same,activity at 3 µM,[2]; [15],104 ± 1.5%
same,activity at 10 µM,[2]; [14],129 ± 28.5%
same,activity at 10 µM,[2]; [15],100 ± 1.4%
same,Free Cmax,[3],2320 nM
